Source: patent publication US8440794B2, “Peptide sequences, their branched form and use thereof for antimicrobial applications” (Universita' Degli Studi di Siena, priority 2008, dated 2013)
Values after ≈ are worked out from the molar mass of the structure shown. Where a SMILES comes first, the peptide text is derived from it. Bridges are numbered along the chain shown (N, C = ends). Roman numbers before positions name the chains, in order. [ ]: non-standard residue; d: D form. βAla = NCCC(=O)O

Tests used:
P. aeruginosa AV65 = assay type: cell-based, Pseudomonas aeruginosa; settings: AV65, 24 h
Protocol: (§1) M33, […], M35 and M36 MICs were determined against strains of several bacterial species, including Gram-negative pathogens and also Staphylococcus aureus (Table 1). MICs in the micromolar range were observed against several Gram-negatives including Pseudomonas aeruginosa, Acinetobacter baumannii and most Enterobacteriaceae, with the exception of Proteus mirabilis, Serratia marcescens and Burkholderia cepacia. Activity of peptides was retained against MDR strains with various resistance mechanisms (such as extended-spectrum beta-lactamases and carbapenemases), including MDR P. aeruginosa strains from CF patients. Antimicrobial profile of M33, […] and potency were overall similar to those of polymyxin B, although M33, M34, M35 and M36 also appeared to have some activity against S. aureus (Table 1).

[1] = system: P. aeruginosa SC-MDm03-02; assay type: cell-based, Pseudomonas aeruginosa; settings: SC-MDm03-02, 24 h
Protocol: as §1

A. baumannii MR157 = assay type: cell-based, Acinetobacter baumannii; settings: MR157, 24 h
Protocol: as §1

A. baumannii RUH 875 = assay type: cell-based, Acinetobacter baumannii; settings: RUH 875, 24 h
Protocol: as §1

[2] = assay type: in vivo; settings: animals treated ip with 100 mg/Kg (not shown)
E. coli TG1 [3] = test: In vivo antibacterial activity, mice infected ip with lethal amount of E. coli TG1; design: species or system Balb-c mice; settings: E. coli TG1 1.5×10^9 CFU ip; single dose 10 mg/Kg ip 30 minutes later
Protocol: FIG. 4. In vivo antibacterial activity of tetra-branched M33 peptide. A, Balb-c mice (20 g) were intra-peritoneally injected with a lethal amount of E. coli TG1 cells (1.5×10^9 CFU). Continuous line (Ctr) indicates mice only injected ip with bacteria and no M33. Broken line indicates mice injected ip with bacteria and a single injection of M33 peptide 10 mg/Kg 30 minutes later. B, Balb-c mice (20 g) were intra-peritoneally injected with a lethal amount of P. aeruginosa cells (ATCC 27853 1×10^7 CFU). Continuous line (Ctr) indicates mice which only received bacteria; other groups received bacteria and a single dose of M33 30 minutes later (see figure for doses of M33). C, Balb-c mice (20 g) were intra-peritoneally injected with a lethal amount of P. aeruginosa cells (multi drug resistant VR 147 clinical isolate, 1.5×10^7 CFU). Continuous line (Ctr) indicates mice which only received bacteria; broken line indicates mice which received bacteria and a single dose of M33 25 mg/Kg. D, Balb-c mice (20 g) were intra-peritoneally injected with a lethal amount of P. aeruginosa cells (ATCC 27853 1×10^7 CFU). […]
Tetra-branched M33 peptide was analysed for its antibacterial activity in mice infected with lethal amounts of bacteria. […]

[4] = system: Acinetobacter baumannii RUH 134; assay type: cell-based; settings: RUH 134, 24 h
Protocol: as §1

[5] = system: Serratia marcescens W03BG0003; assay type: cell-based; settings: W03BG0003, 24 h
Protocol: as §1

[6] = system: Proteus mirabilis W03VA1017; assay type: cell-based; settings: W03VA1017, 24 h
Protocol: as §1

[7] = system: Enterobacer aerogenes W03BG0067; assay type: cell-based; settings: 24 h
Protocol: as §1

[8] = system: Escherichia coli ATCC 25922; assay type: cell-based; settings: ATCC 25922, 24 h
Protocol: as §1

[9] = system: Klebsiella pneumoniae ATCC 13833; assay type: cell-based; settings: ATCC 13833, 24 h
Protocol: as §1

[10] = system: Burkholderia cepacia ORB-99; assay type: cell-based; settings: 24 h
Protocol: as §1

[11] = system: Enterobacter cloacae W03AN0041; assay type: cell-based; settings: W03AN0041, 24 h
Protocol: as §1

[12] = system: Pseudomonas aeruginosa ATCC 27853; assay type: cell-based; settings: ATCC 27853, 24 h
Protocol: as §1

[13] = system: Staphylococcus aureus ATCC 29213; assay type: cell-based; settings: ATCC 29213, 24 h
Protocol: as §1

LPS = test: Limulus amebocyte lysate test (E-toxate), LPS neutralization; settings: not shown
E. coli TG1 [14] = test: Antibacterial activity against E. coli TG1 cells (CFU count after 75 min incubation, FIG. 1A); assay type: cell-based; settings: 75 minutes at 37° C., CFU counted
From the text: FIG. 1. A, Antibacterial activity against E. coli TG1 cells. Comparison of the following tetra-branched peptides: M6 batch 1 synthesis (triangles), M6 batch 2 synthesis (squares), M6 batch 3 synthesis (white circles), which contain a mixture of Gln and pyroGlu (in unknown percentages) as first amino-acid, […] (asterisks), where the first amino-acid is 100% pyroGlu, and M33 (black circles), in which the first Gln was deleted. […] SD derived by means of three different experiments. Many different syntheses of M33 (and also of M34, M35 and M36, here not shown) gave perfectly overlapping results without any wavering outcome. B, Mass spectrometry analysis of tetra-branched peptide M6 crude mixture. Calculated molecular mass of M6 was 5195 Da. Two main peaks are present, one at 5197 Da corresponding to unmodified M6 and one at 5179 Da that corresponds to the secondary product with one pyroGlu in first position in the place of one of the four Gln. C, Mass spectrometry analysis of tetrabranched peptide M33 after 24 hours of incubation in serum. The peptide appears as a single peak at the expected molecular mass (4683 Da).
A single colony of E. coli TG1 strain was cultured in 2×TY medium to 0.2 OD^600. […] The following day colonies (CFU/ml) grown on plates were counted.

`CC[C@H](C)[C@H](NC(=O)[C@H](CCCCN)NC(=O)[C@@H](N)CCCCN)C(=O)N[C@@H](CCCNC(=N)N)C(=O)N[C@H](C(=O)N[C@@H](CCCNC(=N)N)C(=O)N[C@@H](CC(C)C)C(=O)N[C@@H](CO)C(=O)N[C@@H](C)C(=O)NCCCC[C@H](NC(=O)[C@H](C)NC(=O)[C@H](CO)NC(=O)[C@H](CC(C)C)NC(=O)[C@H](CCCNC(=N)N)NC(=O)[C@@H](NC(=O)[C@H](CCCNC(=N)N)NC(=O)[C@@H](NC(=O)[C@H](CCCCN)NC(=O)[C@@H](N)CCCCN)[C@@H](C)CC)C(C)C)C(=O)NCCCC[C@H](NC(=O)[C@H](CCCCNC(=O)[C@H](C)NC(=O)[C@H](CO)NC(=O)[C@H](CC(C)C)NC(=O)[C@H](CCCNC(=N)N)NC(=O)[C@@H](NC(=O)[C@H](CCCNC(=N)N)NC(=O)[C@@H](NC(=O)[C@H](CCCCN)NC(=O)[C@@H](N)CCCCN)[C@@H](C)CC)C(C)C)NC(=O)[C@H](C)NC(=O)[C@H](CO)NC(=O)[C@H](CC(C)C)NC(=O)[C@H](CCCNC(=N)N)NC(=O)[C@@H](NC(=O)[C@H](CCCNC(=N)N)NC(=O)[C@@H](NC(=O)[C@H](CCCCN)NC(=O)[C@@H](N)CCCCN)[C@@H](C)CC)C(C)C)C(=O)NCCC(=O)O)C(C)C` [M33, KKIRVRLSA] (I: H-KKIRVRLSAKK[βAla]-OH / II: H-KKIRVRLSAK / III: H-KKIRVRLSA / IV: H-KKIRVRLSA; amide I:10-IV:C, I:11-II:C, II:10-III:C; N-terminus assumed) showed an MIC (P. aeruginosa AV65) of 1.5 µM (≈ 7.02 µg/mL), an MIC [1] of 3 µM (≈ 14 µg/mL) and an MIC (A. baumannii MR157) of 3 µM (≈ 14 µg/mL). For the same compound, the MIC (A. baumannii RUH 875) was 3 µM (≈ 14 µg/mL), the Apparent toxicity signs [2] was “did not produce apparent toxicity signs” and the “Animals protected from signs of sepsis and death (seven-day survival)” value (E. coli TG1 [3]) was 100%. The MIC [4] was 1.5 µM (≈ 7.02 µg/mL), the MIC [5] was over 24 µM and the MIC [6] was over 24 µM. It also gave an MIC [7] of 1.5 µM (≈ 7.02 µg/mL), an MIC [8] of 1.5 µM (≈ 7.02 µg/mL) and an MIC [9] of 1.5 µM (≈ 7.02 µg/mL). It also gave an MIC [10] of over 24 µM, an MIC [11] of 1.5 µM (≈ 7.02 µg/mL) and an MIC [12] of 1.5 µM (≈ 7.02 µg/mL). For the same compound, the MIC [13] was 6 µM (≈ 28.1 µg/mL), the “Neutralization of sample gelification due to LPS” value (LPS) was “ability to neutralize sample gelification due to LPS” and the “Antibacterial activity against E. coli TG1 cells (comparison of tetra-branched peptides, FIG. 1A)” value (E. coli TG1 [14]) was “improved peptide activity”.
